Here are results for four compounds from patent US20240174596A1 (Northwestern University, priority 2021, published 2024).

Each structure is given as a SMILES string. Where a name gives a salt, the structure may show the parent alone. Read-outs that look alike come from different tables or passages of the source. Marks after values point to notes of the source that are not given here.

For test [1], the target named is T1, GABA-AT (Sus scrofa, UniProt P80147). Kind of test: Reversible inhibition of GABA-AT (coupled assay with SSDH). It counts as biochemical, pig. Set-up: was purified from pig brain following a procedure described previously; from tissue; host or cells: pig brain. Particulars: for Ki: Ki = IC50/(1 + [S]/Km), 9-point assay. The method, then: (§1) All reagents for enzyme purification and assays were purchased from Sigma-Aldrich (St. Louis, MO, USA). Human OAT (0.672 mg/mL) was purified from E. coli BL21 (DE3) cells following the procedure described above, and coenzyme human recombinant pyrroline 5-carboxylate reductase (PYCRI) were expressed, grown, and purified according to a literature procedure.^4 γ-Aminobutyric acid aminotransferase (GABA-AT, 0.4 mg/mL) was purified from pig brain following a procedure described previously^5, and coenzyme succinic semialdehyde dehydrogenase (SSDH) was purified from GABase (catalog No. G7509-25UN, Sigma-Aldrich), a commercially available mixture of SSDH and GABA-AT, using a known procedure.^6 Commercially available L-aspartate aminotransferase (Asp-AT) from the porcine heart (catalog No. G2751-2KU, Sigma-Aldrich) and the desired assay coenzyme malic dehydrogenase from porcine (catalog No. M2634-5KU, Sigma-Aldrich), and L-alanine aminotransferase (Ala-AT) from the porcine heart (catalog No. G8255-200UN, Sigma-Aldrich) and the desired assay coenzyme lactate dehydrogenase from porcine (catalog No. 427211-50KU, Sigma-Aldrich) were used directly without further purification. All the enzyme assays for the inactivation, partition ratio, and dialysis experiment were recorded on a Synergy H1 hybrid multimode microplate reader (Biotek, USA) with transparent 96-well plates.
T1 sequence (P80147 29-500): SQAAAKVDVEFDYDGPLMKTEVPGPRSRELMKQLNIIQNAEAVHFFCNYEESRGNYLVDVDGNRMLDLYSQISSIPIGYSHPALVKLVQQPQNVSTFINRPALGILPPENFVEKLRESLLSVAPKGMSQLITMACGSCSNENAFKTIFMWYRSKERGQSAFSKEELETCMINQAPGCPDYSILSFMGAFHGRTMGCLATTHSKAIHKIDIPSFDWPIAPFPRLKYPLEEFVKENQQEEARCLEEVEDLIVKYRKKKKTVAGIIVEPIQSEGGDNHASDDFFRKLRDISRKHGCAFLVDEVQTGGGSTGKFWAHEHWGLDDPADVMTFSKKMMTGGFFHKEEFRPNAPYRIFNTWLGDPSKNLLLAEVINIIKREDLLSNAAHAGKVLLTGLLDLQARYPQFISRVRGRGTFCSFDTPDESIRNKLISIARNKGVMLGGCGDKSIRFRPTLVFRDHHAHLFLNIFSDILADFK
96-well plates were loaded with 80 μL of an assay mixture containing excess SSDH, 1 mM NADP^+, 11.1 mM GABA, and 10 μL of various concentrations of the tested compounds in 50 mM potassium pyrophosphate buffer (pH 8.5, 5 mM α-ketoglutarate, and 5 mM β-mercaptoethanol). […] The microplate was shaken at 25° C. for 1 min, and the remaining enzyme activity was determined by observing the change in absorbance at 340 nm at 25° C. based on the conversion of NADP^+ to NADPH. […] Subsequent Ki values were determined using equation (2) All assays were performed in duplicate.

In test [2] the target is T2, hOAT (Homo sapiens, UniProt P04181).
T2 construct: made in house; host or cells: E. coli BL21(DE3)
T2 sequence (P04181 26-439): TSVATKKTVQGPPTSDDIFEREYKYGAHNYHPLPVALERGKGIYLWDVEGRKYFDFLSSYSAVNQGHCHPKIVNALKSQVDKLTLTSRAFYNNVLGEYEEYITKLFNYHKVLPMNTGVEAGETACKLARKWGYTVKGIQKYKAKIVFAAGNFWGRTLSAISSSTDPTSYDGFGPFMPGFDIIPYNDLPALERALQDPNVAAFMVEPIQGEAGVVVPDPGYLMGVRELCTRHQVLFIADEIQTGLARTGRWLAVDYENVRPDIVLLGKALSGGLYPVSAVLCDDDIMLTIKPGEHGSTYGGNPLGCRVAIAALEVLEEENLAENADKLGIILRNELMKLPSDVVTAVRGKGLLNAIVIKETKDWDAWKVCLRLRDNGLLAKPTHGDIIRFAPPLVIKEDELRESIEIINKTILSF
The following applies: data extracted from Reference 9; cited from earlier work.

The subject of test [3] is HCC mouse model. Particulars: 0.1 and 1.0 mg/kg; PO; cited from earlier work.
Test [4] deals with aspartate aminotransferase (Asp-AT). Particulars: up to 4 mM; cited from earlier work.
Test [5] addresses T2, hOAT. Particulars: data extracted from Reference 9; cited from earlier work. This is another data set of the same source.
The target in test [6] is T2, hOAT. Kind of test: Time-dependent inactivation of hOAT. The following applies: for kinact/KI: inactivation efficiency; for KI (inactivator concentration for half-maximal inactivation): inhibitor concentration for half-maximal inactivation; for KI (inactivator concentration for half-maximal inactivation) / kinact: mean and standard error. It counts as biochemical. The method, then: as §1
Time-dependent inactivation against hOAT was performed using an optimized procedure published previously.^7 10 μL of hOAT (0.025 mg/mL) was preincubated with 10 μL of various concentrations of tested compounds in 100 mM potassium pyrophosphate buffer (pH 8.0, 5 mM α-ketoglutarate, and 5 mM β-mercaptoethanol) at 25° C. in a 96-well plate. At time intervals, 80 μL of assay solution containing PYCR^1 (0.5 μg), 1 mM NADH, and 25 mM L-ornithine in the abovementioned potassium pyrophosphate buffer were added to the incubation mixture and assayed for OAT activity at 37° C. for 30 min. The change in UV absorbance at 340 nm at 37° C. based on the conversion of NADH to NAD was monitored by a microplate reader. All assays were performed in duplicate, and the remaining OAT activity at each preincubation time at each inhibitor concentration was averaged. The natural logarithm of the percentage of the remaining OAT activity was plotted against the preincubation time at each inhibitor concentration to obtain the kobs (slope) value for each concentration. The kobs value is the rate constant describing the inactivation at each inhibitor concentration. kobs is replotted against the inhibitor concentration using nonlinear regression analysis using GraphPad Prism 8.0. K1 and kinact values were estimated from equation (1)
where kinact is the maximal rate of inactivation, K1 is the inhibitor concentration required for half-maximal inactivation, and [I] is the preincubation concentration of the tested compound.

Test [7] concerns alanine aminotransferase (Ala-AT). Particulars: up to 4 mM; cited from earlier work.
For test [8], the target named is T1, GABA-AT. Particulars: literature, cited from earlier work.
For test [9], the target named is T2, hOAT. Particulars: literature; cited from earlier work.
Test [10] deals with T2, hOAT. Description: Partition ratio experiment (titration of hOAT). It counts as biochemical. The following applies: in the presence of α-KG. The method, then:
FIG. 9. Titration of hOAT with SS-1-148. The loss of enzyme activity was measured as a function of the ratio of […] to enzyme concentration. Linear regression was used on the linear portion of the curves to obtain the X-intercept, which was the turnover number (partition ratio=turnover number−1).
The partition ratio was calculated using previous protocols.^8-10

Test [11] has as its target T2, hOAT. Kind of test: Fluoride ion release assay. It counts as biochemical. Particulars: without α-KG; triplicate, mean with standard deviation. The method, then:
The fluoride ion release assay was conducted using previous protocols.^10 The final concentration of enzyme in the sample was determined via BCA protein assay kit (Pierce, cat: 23225). A calibration curve of voltage (V, mV) was generated from varying concentrations of NaF (F, μM). For accurate detection of fluoride ion concentration, 10 μM of fluoride ion was added to each control and sample The number of fluoride ions released per active site was calculated by the ratio of the fluoride ion release concentration and enzyme concentration.

As for `N[C@H]1C[C@@H](C(=O)O)CC1=C(C(F)(F)F)C(F)(F)F` [BCF3, (1S,3S)-3-Amino-4-(hexafluoropropan-2-ylidenyl)-cyclopentane-1-carboxylic Acid], the Ki in test [1] is 5.16 mM. Besides, the Fluoride ion release in [2] is on record as 79^b. In addition, in [3], the “serum AFP levels” value is recorded as “remarkably decreased” and the tumor growth result is recorded as “inhibited tumor growth”. In addition, in test [4], the “inhibition on aspartate aminotransferase (Asp-AT)” value is “no inhibition”. In addition, the Partition ratio in test [5] was 12^b. Also, in test [6], the kinact/KI is 16.7 M⁻¹ s⁻¹, the KI (inactivator concentration for half-maximal inactivation) was 0.09 ± 0.03 mM and the maximal inactivation rate constant (kinact) was 0.0015 s⁻¹. Also, the “inhibition on alanine aminotransferase (Ala-AT)” value in test [7] is listed as “no inhibition”.
In the case of `N[C@H]1C=C(C(=O)O)CCC1(F)F` [WZ-2-051, (S)-3-amino-4,4-difluorocyclohex-1-enecarboxylic acid], in [8] (hOAT over GABA-AT), the “selectivity over GABA-AT” value was 13.3 fold. Further, the “type of inhibition on GABA-AT” value in test [8] is on record as “apparent irresponsible inhibition”. In test [9], the “improvement in inactivation efficiency (kinact/K1 ratio) against hOAT compared to BCF3” value is recorded as 23 fold.
Regarding `N[C@H]1CC(C(=O)O)=CC1(F)F` [Compound 5, (S)-4-Amino-3,3-difluorocyclopent-1-enecarboxylic acid], in [1], the “inhibitory activity against GABA-AT weaker than cyclopentane-based 4” value is listed as “about 10 times” and the inhibitory constant (Ki) was 1.34 mM. Also, the Partition ratio in test [10] was determined as 817. Also, the Fluoride ion release in [11] was 754 ± 57. For the same compound, in test [6], the kinact/KI was 0.233 M⁻¹ s⁻¹, the KI (inactivator concentration for half-maximal inactivation) was determined as 2.13 ± 0.9 mM and the kinact is 0.0005 s⁻¹.
`N[C@H]1C[C@@H](C(=O)O)CC1(F)F` [Compound 4, (1R,4S)-4-Amino-3,3-difluorocyclopentanecarboxylic acid hydrochloric acid salt, reference compound]: the Fluoride ion release in test [11] came to 3395± 31.
